{"source": "patent US9040591B2", "about": "“Methods and compositions comprising at least one α3 βA4 nAChR antagonist or pharmaceutically acceptable salt thereof” (AGI Therapeutics Public Limited Company, priority 2003, dated 2015)", "key": {"[1]": {"details": "2.5 mg dose, conventional formulation, adults; cited from earlier work"}, "[2]": {"test_system": "patients with dominant chronic diarrhea symptoms (functional diarrhea)", "assay": "Example 3 randomized, double-blind, placebo-controlled forced dose escalation study in Functional Diarrhea", "assay_type": "in vivo, human", "details": "for number of patients showing improvement in stool consistency / percent of patients showing improvement in stool consistency: modified per-protocol population", "excerpt": "Eight-two patients (both male and female) meeting ROME II criteria (modified) for Functional Diarrhea were randomized in the study. […] For example, the following table summarizes the number of patients showing “improvement” in stool consistency. Prior to treatment, patients were to be experiencing >50% of the time, a mushy/watery stool consistency in at least 75% of their daily stools. “Improvement” represents a patient experiencing <50% of the time, a mushy/watery stool consistency in at least 75% of daily stools."}, "[3]": {"assay": "Clinical study of transdermal mecamylamine patches in smokers, treatment emergent effects", "assay_type": "in vivo, human", "details": "for Side effect: Constipation: transdermal patches of Example 1, smokers but otherwise healthy subjects", "excerpt": "The mecamylamine transdermal formulation is a transdermal patch that contains mecamylamine blended with an acrylic adhesive that is coated onto a printed backing to produce transdermal patches."}, "[4]": {"assay": "Pharmacokinetics of oral conventional formulation in adults (Young et al. 2001)", "assay_type": "in vivo, human adults", "details": "expected", "description": "Bear et al., Am. J. Physiol., 186, 180-86 (1956). […] Young et al., Clinical Therapeutics, 23(4) (2001). […] The typical dose used for treating hypertensive subjects is about 25 mg/day, and is dosed using conventional formulations."}, "[5]": {"assay": "Second clinical trial, treatment emergent effects associated with ganglion blocking activity", "assay_type": "in vivo, human", "description": "In a second clinical trial, the frequency of treatment emergent effects typically associated with “ganglion blocking” activity was assessed. The following treatment emergent effects were found: […]"}, "[6]": {"details": "transdermal patches of Example 1, smokers"}}, "note": "Counter-ions that a name gives are not always drawn."}
{"smiles": "CNC1(C)C2CCC(C2)C1(C)C", "note": "(stereo not drawn) [mecamylamine hydrochloride, N-2,3,3-tetramethylbicyclo[2.2.1]heptan-2-amine hydrochloride]", "values": [{"measurement": "maximum plasma concentration (Cmax)", "setting": "[1]", "value": "about 7.89 ng/mL"}]}
{"smiles": "CNC1(C)C2CCC(C2)C1(C)C", "note": "(stereo not drawn) [Mecamylamine, N-2,3,3-tetramethylbicyclo-[2.2.1]heptan-2-amine]", "values": [{"measurement": "overall incidence of adverse events versus placebo", "setting": "[2]; 12-week study", "value": "similar"}, {"measurement": "changes in blood pressure", "setting": "[2]; 12-week study, FIGS. 1 and 2", "value": "no clinically significant changes in blood pressure"}, {"measurement": "number of patients showing improvement in stool consistency", "setting": "[2]; Entire Study", "value": "8/18"}, {"measurement": "percent of patients showing improvement in stool consistency", "setting": "[2]; Entire Study", "value": 44.4, "unit": "%"}, {"measurement": "number of patients showing improvement in stool consistency", "setting": "[2]; Week 4 (2 mg/day)", "value": "8/18"}, {"measurement": "percent of patients showing improvement in stool consistency", "setting": "[2]; Week 4 (2 mg/day)", "value": 44.4, "unit": "%"}, {"measurement": "number of patients showing improvement in stool consistency", "setting": "[2]; Week 8 (4 mg/day)", "value": "8/18"}, {"measurement": "percent of patients showing improvement in stool consistency", "setting": "[2]; Week 8 (4 mg/day)", "value": 44.4, "unit": "%"}, {"measurement": "number of patients showing improvement in stool consistency", "setting": "[2]; Week 12 (6 mg/day)", "value": "9/18"}, {"measurement": "percent of patients showing improvement in stool consistency", "setting": "[2]; Week 12 (6 mg/day)", "value": 50.0, "unit": "%"}, {"measurement": "primary and secondary endpoints versus placebo", "setting": "[2]; intent-to-treat analysis, entire 12 weeks of dose-escalation therapy", "value": "failed to show any statistically significant difference from placebo"}, {"measurement": "stool consistency versus placebo", "setting": "[2]; intent-to-treat analysis, week 4 (2 mg/day)", "value": "improvement in stool consistency"}, {"measurement": "stool consistency versus placebo", "setting": "[2]; modified per-protocol population (n=35), entire dose-escalation and each dose treatment phase", "value": "significant improvements in stool consistency"}, {"measurement": "Side effect: Application", "setting": "[3]; [6]", "value": 25, "unit": "%"}, {"measurement": "Side effect: Asthenia", "setting": "[3]; [6]", "value": 14, "unit": "%"}, {"measurement": "Side effect: Dizziness", "setting": "[3]; [6]", "value": 17, "unit": "%"}, {"measurement": "Side effect: Headache", "setting": "[3]; [6]", "value": 36, "unit": "%"}, {"measurement": "Side effect: Insomnia", "setting": "[3]; [6]", "value": 14, "unit": "%"}, {"measurement": "Side effect: Nausea", "setting": "[3]; [6]", "value": 15, "unit": "%"}, {"measurement": "Side effect: Rash", "setting": "[3]; [6]", "value": 13, "unit": "%"}, {"measurement": "Side effect: Constipation", "setting": "[3]", "value": 42, "unit": "%"}, {"measurement": "Side effect: Constipation", "setting": "[3]; listed as mecamylamine", "value": 42, "unit": "%"}, {"measurement": "24 hour plasma concentration level as % of peak plasma concentration", "setting": "[4]", "value": "less than 25%"}, {"measurement": "time for which about 50% of the peak plasma concentration is maintained", "setting": "[4]", "value": "about 14 hours"}, {"measurement": "Side effect: Cardiac Disorder", "setting": "[5]", "value": 1.3, "unit": "%"}, {"measurement": "Side effect: Constipation", "setting": "[5]", "value": 28.9, "unit": "%"}, {"measurement": "Side effect: Dizziness", "setting": "[5]", "value": 4.0, "unit": "%"}, {"measurement": "Side effect: Dry Mouth", "setting": "[5]", "value": 3.4, "unit": "%"}, {"measurement": "Side effect: Eye", "setting": "[5]", "value": 0.7, "unit": "%"}, {"measurement": "Side effect: Gastrointestinal", "setting": "[5]", "value": 4.36, "unit": "%"}, {"measurement": "Side effect: Nausea", "setting": "[5]", "value": 5.4, "unit": "%"}, {"measurement": "Side effect: Urinary Retention", "setting": "[5]", "value": 0.7, "unit": "%"}]}
